The test has as its target T1, Cbl-b (Homo sapiens, UniProt Q13191).
T1 construct: Cbl-b-HiBit KI Jurkat Cells were purchased from Promega; host or cells: Cbl-b-HiBiT knock-in Jurkat cells
The test is described as follows: Cbl-b Degradation Method B (Nano-Glo HiBiT lytic detection). To be noted: Cbl-b-HiBit KI Jurkat Cells, incubated at least 6-24 hours; for DC50: half maximal degradation, read-out: Cbl-b Degredation Method B IC50; for Dmax: maximum degradation observed, read-out: Cbl-b Degredation Method B Dmax (%). The test is classed as cell-based. Put shortly: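 An 11-point, 3-fold compound dilution was applied for 6-24 hours to Jurkat cells carrying HiBiT-tagged endogenous Cbl-b. Lytic HiBiT luminescence quantified residual protein. Outputs are DC50 and Dmax relative to DMSO control.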

This is an account of results in US20260184710A1, “CASITAS B-LINEAGE LYMPHOMA PROTOONCOGENE B (CBL-B) DEGRADING COMPOUNDS AND ASSOCIATED METHODS OF USE” (Arvinas Operations, Inc., priority 2022, published 2026).

T1 sequence (Q13191 whole entry): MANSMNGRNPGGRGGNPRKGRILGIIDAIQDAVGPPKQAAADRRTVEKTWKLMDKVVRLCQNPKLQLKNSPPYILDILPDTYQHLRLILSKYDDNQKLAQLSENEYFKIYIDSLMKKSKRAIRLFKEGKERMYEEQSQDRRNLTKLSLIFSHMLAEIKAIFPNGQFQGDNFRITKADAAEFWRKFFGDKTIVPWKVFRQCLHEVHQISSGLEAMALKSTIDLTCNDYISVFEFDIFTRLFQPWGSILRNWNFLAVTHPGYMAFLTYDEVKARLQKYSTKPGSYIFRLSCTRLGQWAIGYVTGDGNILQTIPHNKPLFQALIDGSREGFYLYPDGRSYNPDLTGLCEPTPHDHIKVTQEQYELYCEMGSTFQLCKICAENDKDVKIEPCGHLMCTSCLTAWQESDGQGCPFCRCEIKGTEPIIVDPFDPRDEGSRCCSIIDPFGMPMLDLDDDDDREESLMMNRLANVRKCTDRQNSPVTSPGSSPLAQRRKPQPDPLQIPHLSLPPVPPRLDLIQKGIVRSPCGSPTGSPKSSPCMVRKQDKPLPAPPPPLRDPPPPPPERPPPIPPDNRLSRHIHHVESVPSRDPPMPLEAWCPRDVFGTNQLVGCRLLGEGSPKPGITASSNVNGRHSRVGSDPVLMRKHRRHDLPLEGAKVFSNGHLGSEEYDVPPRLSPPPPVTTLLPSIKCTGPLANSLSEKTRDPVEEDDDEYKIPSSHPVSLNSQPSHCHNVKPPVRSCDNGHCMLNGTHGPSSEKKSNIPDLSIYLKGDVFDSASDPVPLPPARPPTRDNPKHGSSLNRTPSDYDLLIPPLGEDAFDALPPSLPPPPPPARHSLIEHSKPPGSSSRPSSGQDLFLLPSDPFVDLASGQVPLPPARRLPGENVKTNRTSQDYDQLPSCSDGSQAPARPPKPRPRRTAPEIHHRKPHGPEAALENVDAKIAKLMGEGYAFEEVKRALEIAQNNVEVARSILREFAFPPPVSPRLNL

Turning to `Cn1cnnc1CC1(c2cccc(N3Cc4c(cc(CNC5CCN(c6ccc7c(c6)C(=O)N(C6CCC(=O)NC6=O)C7=O)CC5)cc4C(F)(F)F)C3=O)c2)COC1` (stereo not shown) [Example 38, 2-(2,6-dioxopiperidin-3-yl)-5-[4-({[2-(3-{3-[(4-methyl-4H-1,2,4-triazol-3-yl)methyl]oxetan-3-yl}phenyl)-3-oxo-7-(trifluoromethyl)-2,3-dihydro-1H-isoindol-5-yl]methyl}amino)piperidin-1-yl]-2,3-dihydro-1H-isoindole-1,3-dione], the DC50 is above 500 nM. `Cn1cnnc1CC1(c2cccc(-n3cc4c(C(F)(F)F)cc(CN5CCC[C@H](CN6CCC(CN7CCN(c8ccc9c(c8F)CN(C8CCC(=O)NC8=O)C9=O)CC7)CC6)C5)cc4n3)c2)COC1` (stereo partly drawn) [Example 256, 3-(4-fluoro-5-{4-[(1-{[(3R)-1-{[2-(3-{3-[(4-methyl-4H-1,2,4-triazol-3-yl)methyl]oxetan-3-yl}phenyl)-4-(trifluoromethyl)-2H-indazol-6-yl]methyl}piperidin-3-yl]methyl}piperidin-4-yl)methyl]piperazin-1-yl}-1-oxo-2,3-dihydro-1H-isoindol-2-yl)piperidine-2,6-dione]: the DC50 was above 500 nM. As usually defined, the Dmax is the largest share of the target that was removed. For `Cn1cnnc1C[C@]1(c2cccc(N3Cc4c(cc(CN5CCN(C[C@H]6CC[C@H](OC7CCN(c8ccc9c(ccn9C9CCC(=O)NC9=O)c8)CC7)CC6)CC5)cc4C(F)(F)F)C3=O)c2)C[C@H](C#N)C1` (stereo partly shown) [Example 226, (1r,3r)-3-[(4-methyl-4H-1,2,4-triazol-3-yl)methyl]-3-(3-{1-oxo-6-[(4-{[(1r,4r)-4-({1-[1-(2,6-dioxopiperidin-3-yl)-1H-indol-5-yl]piperidin-4-yl}oxy)cyclohexyl]methyl}piperazin-1-yl)methyl]-4-(trifluoromethyl)-2,3-dihydro-1H-isoindol-2-yl}phenyl)cyclobutane-1-carbonitrile], the DC50 was below 5 nM and the Dmax lay within 35 to 70%.

In the case of `Cn1cnnc1CC1(c2cccc(N3Cc4c(cc(CN5CCC(c6ccc7c(c6)C(=O)N(C6CCC(=O)NC6=O)C7)CC5)cc4C(F)(F)F)C3=O)c2)COC1` (stereo not shown) [Example 36, 3-[6-(1-{[2-(3-{3-[(4-methyl-4H-1,2,4-triazol-3-yl)methyl]oxetan-3-yl}phenyl)-3-oxo-7-(trifluoromethyl)-2,3-dihydro-1H-isoindol-5-yl]methyl}piperidin-4-yl)-1-oxo-2,3-dihydro-1H-isoindol-2-yl]piperidine-2,6-dione], the DC50 was above 500 nM.

Take `Cn1cnnc1C[C@]1(c2cccc(N3Cc4c(cc(CN5CCN(C[C@H]6CC[C@H](OC7CCN(c8ccc(C9CCC(=O)NC9=O)c(F)c8)CC7)CC6)CC5)cc4C(F)(F)F)C3=O)c2)C[C@H](C#N)C1` (stereo partly shown) [Example 201, (1r,3r)-3-[(4-methyl-4H-1,2,4-triazol-3-yl)methyl]-3-(3-{1-oxo-6-[(4-{[(1r,4r)-4-({1-[4-(2,6-dioxopiperidin-3-yl)-3-fluorophenyl]piperidin-4-yl}oxy)cyclohexyl]methyl}piperazin-1-yl)methyl]-4-(trifluoromethyl)-2,3-dihydro-1H-isoindol-2-yl}phenyl)cyclobutane-1-carbonitrile]: the DC50 is above 500 nM. Turning to `CC1c2nc(N3CCC(O[C@H]4CC[C@H](CN5CCN(Cc6cc(C(F)(F)F)c7cn(-c8cccc(C9(Cc%10nncn%10C)CC9)c8)nc7c6)C(C)(C)C5)CC4)CC3)ccc2C(=O)N1C1CCC(=O)NC1=O` (relative stereo) [Example 253, rel-3-[7-methyl-5-oxo-2-(4-{[(1r,4r)-4-[(3,3-dimethyl-4-{[2-(3-{1-[(4-methyl-4H-1,2,4-triazol-3-yl)methyl]cyclopropyl}phenyl)-4-(trifluoromethyl)-2H-indazol-6-yl]methyl}piperazin-1-yl)methyl]cyclohexyl]oxy}piperidin-1-yl)-5H,6H,7H-pyrrolo[3,4-b]pyridin-6-yl]piperidine-2,6-dione], the DC50 was above 500 nM. For `CC1c2nc(N3CCC(O[C@H]4CC[C@@H](CN5C[C@@H]6C[C@H]5CN6Cc5cc6c(c(C(F)(F)F)c5)CN(c5cccc(C7(Cc8nncn8C)CC7)c5)C6=O)CC4)CC3)ccc2C(=O)N1C1CCC(=O)NC1=O` (stereo partly drawn) [Example 218, 3-[7-methyl-5-oxo-2-(4-{[(1r,4r)-4-{[(1S,4S)-5-{[2-(3-{1-[(4-methyl-4H-1,2,4-triazol-3-yl)methyl]cyclopropyl}phenyl)-3-oxo-7-(trifluoromethyl)-2,3-dihydro-1H-isoindol-5-yl]methyl}-2,5-diazabicyclo[2.2.1]heptan-2-yl]methyl}cyclohexyl]oxy}piperidin-1-yl)-5H,6H,7H-pyrrolo[3,4-b]pyridin-6-yl]piperidine-2,6-dione], the DC50 was 5 to 50 nM and the Dmax is 35 to 70%. With `Cn1cnnc1CC1(c2cccc(N3Cc4c(cc(CN5CCC(c6ccc7c(c6)C(=O)N(C6CCC(=O)NC6=O)C7=O)CC5)cc4C(F)(F)F)C3=O)c2)COC1` (stereo not shown) [Example 33, 2-(2,6-dioxopiperidin-3-yl)-5-(1-{[2-(3-{3-[(4-methyl-4H-1,2,4-triazol-3-yl)methyl]oxetan-3-yl}phenyl)-3-oxo-7-(trifluoromethyl)-2,3-dihydro-1H-isoindol-5-yl]methyl}piperidin-4-yl)-2,3-dihydro-1H-isoindole-1,3-dione], the DC50 is above 500 nM.

Take `Cn1cnnc1CC1(c2cccc(N3Cc4c(cc(CN5CCC[C@H](CN6CCN(C(=O)[C@H]7CC[C@@H](OC8CCN(c9ccc%10c(c9F)CN(C9CCC(=O)NC9=O)C%10=O)CC8)CC7)CC6)C5)cc4C(F)(F)F)C3=O)c2)COC1` (stereo partly drawn) [Example 113, 3-[4-fluoro-1-oxo-5-(4-{[(1r,4r)-4-(4-{[(3S)-1-{[2-(3-{3-[(4-methyl-4H-1,2,4-triazol-3-yl)methyl]oxetan-3-yl}phenyl)-3-oxo-7-(trifluoromethyl)-2,3-dihydro-1H-isoindol-5-yl]methyl}piperidin-3-yl]methyl}piperazine-1-carbonyl)cyclohexyl]oxy}piperidin-1-yl)-2,3-dihydro-1H-isoindol-2-yl]piperidine-2,6-dione]: the DC50 is below 5 nM and the Dmax was 35 to 70%.

In the case of `C[C@@H]1c2nc(N3CCC(O[C@H]4CC[C@H](CN5CCN(Cc6cc7c(c(C(F)(F)F)c6)CN(c6cccc(C8(Cc9nncn9C)CC(C#N)C8)c6)C7=O)C6(CC6)C5)CC4)CC3)ccc2C(=O)N1C1CCC(=O)NC1=O` (single isomer, unassigned) [Example 305, (1r***,3r***)-3-[(4-methyl-4H-1,2,4-triazol-3-yl)methyl]-3-(3-{1-oxo-6-[(7-{[(1r**,4r**)-4-({1-[(7R*)-6-(2,6-dioxopiperidin-3-yl)-7-methyl-5-oxo-5H,6H,7H-pyrrolo[3,4-b]pyridin-2-yl]piperidin-4-yl}oxy)cyclohexyl]methyl}-4,7-diazaspiro[2.5]octan-4-yl)methyl]-4-(trifluoromethyl)-2,3-dihydro-1H-isoindol-2-yl}phenyl)cyclobutane-1-carbonitrile], the DC50 is above 500 nM. For `Cn1cnnc1CC1(c2cccc(N3Cc4c(cc(CN5CCC6(CC5)CCN(c5ccc7c(c5)C(=O)N(C5CCC(=O)NC5=O)C7=O)CC6)cc4C(F)(F)F)C3=O)c2)COC1` (stereo not shown) [Example 27, 2-(2,6-dioxopiperidin-3-yl)-5-(9-{[2-(3-{3-[(4-methyl-4H-1,2,4-triazol-3-yl)methyl]oxetan-3-yl}phenyl)-3-oxo-7-(trifluoromethyl)-2,3-dihydro-1H-isoindol-5-yl]methyl}-3,9-diazaspiro[5.5]undecan-3-yl)-2,3-dihydro-1H-isoindole-1,3-dione], the DC50 is above 500 nM. For the molecule `Cn1cnnc1CC1(c2cccc(N3Cc4c(cc(CN5CCC(CC6CCN(c7ccc8c(c7)C(=O)N(C7CCC(=O)NC7=O)C8=O)CC6)CC5)cc4C(F)(F)F)C3=O)c2)COC1` (stereo not shown) [Example 78, 2-(2,6-dioxopiperidin-3-yl)-5-{4-[(1-{[2-(3-{3-[(4-methyl-4H-1,2,4-triazol-3-yl)methyl]oxetan-3-yl}phenyl)-3-oxo-7-(trifluoromethyl)-2,3-dihydro-1H-isoindol-5-yl]methyl}piperidin-4-yl)methyl]piperidin-1-yl}-2,3-dihydro-1H-isoindole-1,3-dione], the DC50 is above 500 nM. For `Cn1cnnc1CC1(c2cccc(N3Cc4c(cc(CN5CC(CC6CN(c7ccc8c(c7)C(=O)N(C7CCC(=O)NC7=O)C8=O)C6)C5)cc4C(F)(F)F)C3=O)c2)COC1` (stereo not shown) [Example 58, 2-(2,6-dioxopiperidin-3-yl)-5-{3-[(1-{[2-(3-{3-[(4-methyl-4H-1,2,4-triazol-3-yl)methyl]oxetan-3-yl}phenyl)-3-oxo-7-(trifluoromethyl)-2,3-dihydro-1H-isoindol-5-yl]methyl}azetidin-3-yl)methyl]azetidin-1-yl}-2,3-dihydro-1H-isoindole-1,3-dione], the DC50 is above 500 nM.

For the molecule `CC1c2nc(N3CCC(O[C@H]4CC[C@H](CN5CCN(Cc6ccc7c(n6)C(=O)N(c6cccc(C8(Cc9nncn9C)COC8)c6)C7)CC5)CC4)CC3)ccc2C(=O)N1C1CCC(=O)NC1=O` (stereo partly shown) [Example 151, 3-[7-methyl-2-[4-[4-[[4-[[6-[3-[3-[(4-methyl-1,2,4-triazol-3-yl)methyl]oxetan-3-yl]phenyl]-7-oxo-5H-pyrrolo [3,4-b]pyridin-2-yl]methyl]piperazin-1-yl]methyl]cyclohexoxy]-1-piperidyl]-5-oxo-7H-pyrrolo [3,4-b]pyridin-6-yl]piperidine-2,6-dione], the DC50 lay within 5 to 50 nM and the maximal degradation (Dmax) fell in the range of 35 to 70%. As for `Cn1cnnc1CC1(c2cccc(N3Cc4c(cc(CN5CC6(C5)CN(CC5CCN(c7cccc8c7C(=O)N(C7CCC(=O)NC7=O)C8=O)CC5)C6)cc4C(F)(F)F)C3=O)c2)COC1` (stereo not shown) [Example 69, 2-(2,6-dioxopiperidin-3-yl)-4-{4-[(6-{[2-(3-{3-[(4-methyl-4H-1,2,4-triazol-3-yl)methyl]oxetan-3-yl}phenyl)-3-oxo-7-(trifluoromethyl)-2,3-dihydro-1H-isoindol-5-yl]methyl}-2,6-diazaspiro[3.3]heptan-2-yl)methyl]piperidin-1-yl}-2,3-dihydro-1H-isoindole-1,3-dione], the DC50 was above 500 nM.
